Settings in all cases: Compound concentration 10 µM
Assay [1] has as its target Histamine H1 receptor (Homo sapiens) (UniProt P35367).
Description: PDSP Primary Binding target: HRH1 - Compounds are tested at 10 uM concentration, plate are incubated at room temperature in the dark for 90 minutes. Reaction are stopped by vacuum filtration onto 0.3% polyethyleneimine soaked filter mats using Filtermate harvester. Scintilation cocktail is then melted onto microwave-dried filters on a hot plate and the radio activity is counted in Microbia counter.
Assay [2] deals with T1, Alpha-1D adrenergic receptor (Homo sapiens) (UniProt P25100).
T1 sequence (whole entry): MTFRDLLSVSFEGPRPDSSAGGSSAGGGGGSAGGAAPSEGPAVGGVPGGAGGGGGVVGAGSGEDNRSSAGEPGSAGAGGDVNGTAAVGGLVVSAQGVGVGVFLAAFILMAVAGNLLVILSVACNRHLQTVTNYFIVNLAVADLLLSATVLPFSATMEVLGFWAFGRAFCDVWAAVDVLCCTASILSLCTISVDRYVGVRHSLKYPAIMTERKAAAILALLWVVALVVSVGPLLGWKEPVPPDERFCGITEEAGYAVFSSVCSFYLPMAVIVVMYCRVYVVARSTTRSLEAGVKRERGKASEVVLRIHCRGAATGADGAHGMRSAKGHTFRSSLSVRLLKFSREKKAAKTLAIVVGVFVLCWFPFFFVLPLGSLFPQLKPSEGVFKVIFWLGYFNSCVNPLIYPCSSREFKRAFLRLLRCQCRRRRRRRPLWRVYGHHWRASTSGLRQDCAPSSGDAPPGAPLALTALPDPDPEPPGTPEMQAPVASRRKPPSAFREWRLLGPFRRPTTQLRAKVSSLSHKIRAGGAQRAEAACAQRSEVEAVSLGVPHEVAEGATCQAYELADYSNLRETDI
Description: PDSP Primary Binding target: ADRA1D - Compounds are tested at 10 uM concentration, plate are incubated at room temperature in the dark for 90 minutes. Reaction are stopped by vacuum filtration onto 0.3% polyethyleneimine soaked filter mats using Filtermate harvester. Scintilation cocktail is then melted onto microwave-dried filters on a hot plate and the radio activity is counted in Microbia counter.

Assay [3] has as its target T2, Muscarinic acetylcholine receptor M4 (Homo sapiens) (UniProt P08173).
T2 sequence (whole entry): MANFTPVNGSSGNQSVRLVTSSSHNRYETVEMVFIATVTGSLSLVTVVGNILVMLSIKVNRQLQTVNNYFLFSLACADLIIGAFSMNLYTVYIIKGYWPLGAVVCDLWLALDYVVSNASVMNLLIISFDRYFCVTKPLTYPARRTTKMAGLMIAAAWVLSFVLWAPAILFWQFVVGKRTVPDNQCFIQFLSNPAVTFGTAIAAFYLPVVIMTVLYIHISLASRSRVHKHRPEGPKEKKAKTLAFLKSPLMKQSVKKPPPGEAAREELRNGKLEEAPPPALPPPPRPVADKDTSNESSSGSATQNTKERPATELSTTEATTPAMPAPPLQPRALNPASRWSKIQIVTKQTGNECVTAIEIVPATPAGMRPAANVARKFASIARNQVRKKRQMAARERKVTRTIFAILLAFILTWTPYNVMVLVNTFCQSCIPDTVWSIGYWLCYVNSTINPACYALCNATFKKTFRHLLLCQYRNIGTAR
Description: PDSP Primary Binding target: CHRM4 - Compounds are tested at 10 uM concentration, plate are incubated at room temperature in the dark for 90 minutes. Reaction are stopped by vacuum filtration onto 0.3% polyethyleneimine soaked filter mats using Filtermate harvester. Scintilation cocktail is then melted onto microwave-dried filters on a hot plate and the radio activity is counted in Microbia counter.

In assay [4] the target is T3, Alpha-1B adrenergic receptor (Homo sapiens) (UniProt P35368).
T3 sequence (whole entry): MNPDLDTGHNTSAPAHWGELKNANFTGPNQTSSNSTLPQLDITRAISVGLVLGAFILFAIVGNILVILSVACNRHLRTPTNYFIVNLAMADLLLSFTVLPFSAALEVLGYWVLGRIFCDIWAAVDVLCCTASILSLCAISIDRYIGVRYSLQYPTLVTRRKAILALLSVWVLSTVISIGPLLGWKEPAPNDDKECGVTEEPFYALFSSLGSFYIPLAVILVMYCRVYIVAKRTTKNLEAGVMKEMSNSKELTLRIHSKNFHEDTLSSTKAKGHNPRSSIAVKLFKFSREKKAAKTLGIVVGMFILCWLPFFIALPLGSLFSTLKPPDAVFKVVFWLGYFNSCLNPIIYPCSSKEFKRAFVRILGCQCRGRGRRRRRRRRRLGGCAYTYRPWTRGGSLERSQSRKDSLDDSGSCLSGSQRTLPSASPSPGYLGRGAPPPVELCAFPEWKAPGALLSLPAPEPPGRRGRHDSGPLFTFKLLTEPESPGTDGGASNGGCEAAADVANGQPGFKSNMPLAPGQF
Description: PDSP Primary Binding target: ADRA1B - Compounds are tested at 10 uM concentration, plate are incubated at room temperature in the dark for 90 minutes. Reaction are stopped by vacuum filtration onto 0.3% polyethyleneimine soaked filter mats using Filtermate harvester. Scintilation cocktail is then melted onto microwave-dried filters on a hot plate and the radio activity is counted in Microbia counter.

For assay [5], the target named is T4, Muscarinic acetylcholine receptor M2 (Homo sapiens) (UniProt P08172).
T4 sequence (whole entry): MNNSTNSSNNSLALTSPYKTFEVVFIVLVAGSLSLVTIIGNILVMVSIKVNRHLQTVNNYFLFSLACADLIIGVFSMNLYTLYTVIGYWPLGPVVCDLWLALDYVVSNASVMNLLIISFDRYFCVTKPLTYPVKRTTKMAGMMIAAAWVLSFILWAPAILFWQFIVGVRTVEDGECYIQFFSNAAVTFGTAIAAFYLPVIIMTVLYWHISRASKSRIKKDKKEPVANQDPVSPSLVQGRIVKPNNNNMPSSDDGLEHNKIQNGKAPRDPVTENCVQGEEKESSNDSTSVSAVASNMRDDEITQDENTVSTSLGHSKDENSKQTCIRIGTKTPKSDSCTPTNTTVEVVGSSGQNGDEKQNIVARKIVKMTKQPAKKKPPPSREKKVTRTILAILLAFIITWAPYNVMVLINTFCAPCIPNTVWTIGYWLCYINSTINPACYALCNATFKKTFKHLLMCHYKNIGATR
Description: PDSP Primary Binding target: CHRM2 - Compounds are tested at 10 uM concentration, plate are incubated at room temperature in the dark for 90 minutes. Reaction are stopped by vacuum filtration onto 0.3% polyethyleneimine soaked filter mats using Filtermate harvester. Scintilation cocktail is then melted onto microwave-dried filters on a hot plate and the radio activity is counted in Microbia counter.

Assay [6] has as its target 5-hydroxytryptamine receptor 5A (Homo sapiens) (UniProt P47898).
Description: PDSP Primary Binding target: HTR5A - Compounds are tested at 10 uM concentration, plate are incubated at room temperature in the dark for 90 minutes. Reaction are stopped by vacuum filtration onto 0.3% polyethyleneimine soaked filter mats using Filtermate harvester. Scintilation cocktail is then melted onto microwave-dried filters on a hot plate and the radio activity is counted in Microbia counter.
For assay [7], the target named is T5, Alpha-1A adrenergic receptor (Homo sapiens) (UniProt P35348).
T5 sequence (whole entry): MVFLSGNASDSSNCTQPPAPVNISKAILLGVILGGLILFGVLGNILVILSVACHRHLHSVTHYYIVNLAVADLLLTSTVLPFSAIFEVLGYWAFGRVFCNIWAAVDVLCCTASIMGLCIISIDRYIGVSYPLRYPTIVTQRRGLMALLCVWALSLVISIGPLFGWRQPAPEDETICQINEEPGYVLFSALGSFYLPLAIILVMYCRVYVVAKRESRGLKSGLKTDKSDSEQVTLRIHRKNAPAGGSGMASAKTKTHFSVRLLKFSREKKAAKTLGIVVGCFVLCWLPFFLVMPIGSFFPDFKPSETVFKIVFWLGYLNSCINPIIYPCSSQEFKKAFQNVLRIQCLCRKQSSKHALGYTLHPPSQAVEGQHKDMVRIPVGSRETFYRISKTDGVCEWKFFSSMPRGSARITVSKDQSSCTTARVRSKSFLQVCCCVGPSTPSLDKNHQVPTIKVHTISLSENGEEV
Description: PDSP Primary Binding target: ADRA1A - Compounds are tested at 10 uM concentration, plate are incubated at room temperature in the dark for 90 minutes. Reaction are stopped by vacuum filtration onto 0.3% polyethyleneimine soaked filter mats using Filtermate harvester. Scintilation cocktail is then melted onto microwave-dried filters on a hot plate and the radio activity is counted in Microbia counter.

Assay [8] addresses Delta-type opioid receptor (Homo sapiens) (UniProt P41143).
Description: PDSP Primary Binding target: OPRD1 - Compounds are tested at 10 uM concentration, plate are incubated at room temperature in the dark for 90 minutes. Reaction are stopped by vacuum filtration onto 0.3% polyethyleneimine soaked filter mats using Filtermate harvester. Scintilation cocktail is then melted onto microwave-dried filters on a hot plate and the radio activity is counted in Microbia counter.

Sequence of Histamine H1 receptor (Homo sapiens) (P35367 whole entry): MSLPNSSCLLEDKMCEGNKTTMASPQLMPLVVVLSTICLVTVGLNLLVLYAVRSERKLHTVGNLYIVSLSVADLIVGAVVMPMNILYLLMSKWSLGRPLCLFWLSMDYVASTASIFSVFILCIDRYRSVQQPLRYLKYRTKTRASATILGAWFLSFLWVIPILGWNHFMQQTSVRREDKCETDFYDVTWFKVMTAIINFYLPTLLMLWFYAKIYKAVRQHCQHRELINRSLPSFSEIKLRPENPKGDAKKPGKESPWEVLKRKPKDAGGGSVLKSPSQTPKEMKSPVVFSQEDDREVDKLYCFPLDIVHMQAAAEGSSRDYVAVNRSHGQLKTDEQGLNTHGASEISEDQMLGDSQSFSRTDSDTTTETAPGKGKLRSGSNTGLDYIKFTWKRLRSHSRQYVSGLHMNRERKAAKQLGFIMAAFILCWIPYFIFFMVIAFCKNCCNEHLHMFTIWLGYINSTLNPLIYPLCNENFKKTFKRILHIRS
Sequence of Delta-type opioid receptor (Homo sapiens) (P41143 whole entry): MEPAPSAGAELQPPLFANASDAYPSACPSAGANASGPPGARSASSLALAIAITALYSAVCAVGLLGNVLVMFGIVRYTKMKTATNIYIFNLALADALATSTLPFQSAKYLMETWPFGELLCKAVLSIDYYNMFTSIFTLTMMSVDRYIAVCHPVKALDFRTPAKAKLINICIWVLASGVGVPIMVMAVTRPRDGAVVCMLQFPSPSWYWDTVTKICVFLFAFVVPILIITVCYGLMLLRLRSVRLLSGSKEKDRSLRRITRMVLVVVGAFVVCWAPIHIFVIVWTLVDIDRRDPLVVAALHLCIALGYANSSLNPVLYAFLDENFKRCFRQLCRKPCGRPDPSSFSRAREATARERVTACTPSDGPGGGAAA
Sequence of 5-hydroxytryptamine receptor 5A (Homo sapiens) (P47898 whole entry): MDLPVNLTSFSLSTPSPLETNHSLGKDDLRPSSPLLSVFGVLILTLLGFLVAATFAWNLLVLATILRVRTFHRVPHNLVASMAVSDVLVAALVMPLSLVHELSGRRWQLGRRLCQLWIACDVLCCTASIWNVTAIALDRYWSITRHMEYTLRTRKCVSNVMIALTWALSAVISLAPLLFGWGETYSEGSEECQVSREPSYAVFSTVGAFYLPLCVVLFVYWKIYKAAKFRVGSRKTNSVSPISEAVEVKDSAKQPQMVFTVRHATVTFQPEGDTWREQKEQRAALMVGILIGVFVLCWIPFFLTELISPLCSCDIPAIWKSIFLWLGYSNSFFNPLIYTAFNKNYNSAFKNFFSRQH

One may read the inhibition as the drop in the measured response relative to a control, in per cent. As for `Cc1nc(C(=O)N2CCC[C@H]2Cc2nnc(-c3ccccc3)o2)c(-c2ccccc2F)s1`, the inhibition in assay [1] was 30.3%; in assay [2], 26.4%; in assay [3] it was 39.1%; in assay [4] it was 9.45%; in assay [5], 71.2%; in assay [6], 12.1%. The inhibition in assay [7] is 1.08%; in assay [8], -2.06%.

Regarding `Clc1cccc(COc2cncc(N3CCNCC3)n2)c1`, the inhibition in assay [1] is 55.6%; in assay [2], 22.3%; in assay [3], 85.7%; in assay [4], 26.2%; in assay [5], 33.3%; in assay [6], 13.2%. The inhibition in assay [7] is 11.2%; in assay [8], -4.82%.

Turning to `NC[C@@H]1O[C@H](C23CC4CC(CC(C4)C2)C3)Cc2c1ccc(O)c2O`, the inhibition is 38.4% in assay [1]; 3.98% in assay [2]; 8.08% in assay [3]; 56.9% in assay [4]; -9.03% in assay [5]; 20.1% in assay [6]. Also, the inhibition was -1.53% in assay [7] and 3.82% in assay [8].

As for `CCCCN1CCC(COC(=O)c2cc(Cl)c(N)c3c2OCCO3)CC1`, the inhibition in assay [1] was 55.4%; in assay [2], 24.6%; in assay [3], 5.81%; in assay [4] it was -1.39%; in assay [5], 5.99%; in assay [6] it was -0.67%. For the same compound, the values for the inhibition in assay [7] and in assay [8] were 52.9% and 0.6%, respectively.

In the case of `Cc1ccccc1C(=O)Nc1ccc(C(=O)N2CCCC(O)c3cc(Cl)ccc32)c(C)c1` (stereo unspecified), the inhibition in assay [1] is 70.8%; in assay [2], 12.7%; in assay [3], -6.02%; in assay [4], 0.66%; in assay [5] it was 2.3%; in assay [6] it was 11.7%. In addition, the values for the inhibition in assay [7] and in assay [8] were 8.56% and 7.13%, respectively.

Regarding `COc1cccc([C@@H](C)NCCCc2ccccc2Cl)c1`, the inhibition in assay [1] was 70.6%; in assay [2], 20.3%; in assay [3], 27.2%; in assay [4], 15.5%; in assay [5] it was 7%; in assay [6], 61.2%. Also, the results for the inhibition in assay [7] and in assay [8] were 24% and 11.8%, respectively.

Regarding `COC(=O)C1=C(C)NC(C)=C(C(=O)OCCCN2CCC(c3ccccc3)(c3ccccc3)CC2)[C@H]1c1cccc([N+](=O)[O-])c1`, the inhibition in assay [1] was 98.8%; in assay [2] it was 83.9%; in assay [3], 24.8%; in assay [4] it was 98.6%; in assay [5] it was 40.4%; in assay [6], 68.7%. Also, the figures for the inhibition in assay [7] and in assay [8] were 98.9% and 94.1%, respectively.

Source of the values: ChEMBL document CHEMBL5442219.
